Measured values published in publication PMC7821181, “MS Binding Assays for Glycine Transporter 2 (GlyT2) Employing Org25543 as Reporter Ligand” (Chemmedchem, 2020).
“And” between values parts separate entries of the source, which are not always exact repeats. Equal entries are not always repeated. “Also recorded” adds a separate entry of the source. Where two headings read alike, the source gives them in different places.

Legend:
GlyT2 [1] = conditions: ref 23; read-out: IC50 in [3H]glycine uptake assay; cited from earlier work
hGlyT2 = target: T1, hGlyT2 (Homo sapiens, UniProt Q9Y345); assay: GlyT2 MS Binding Assays: kinetic (dissociation and association) experiments
T1 construct: host or cells: HEK293 cells stably expressing hGlyT2; crude membrane fractions
T1 sequence (Q9Y345 1-797): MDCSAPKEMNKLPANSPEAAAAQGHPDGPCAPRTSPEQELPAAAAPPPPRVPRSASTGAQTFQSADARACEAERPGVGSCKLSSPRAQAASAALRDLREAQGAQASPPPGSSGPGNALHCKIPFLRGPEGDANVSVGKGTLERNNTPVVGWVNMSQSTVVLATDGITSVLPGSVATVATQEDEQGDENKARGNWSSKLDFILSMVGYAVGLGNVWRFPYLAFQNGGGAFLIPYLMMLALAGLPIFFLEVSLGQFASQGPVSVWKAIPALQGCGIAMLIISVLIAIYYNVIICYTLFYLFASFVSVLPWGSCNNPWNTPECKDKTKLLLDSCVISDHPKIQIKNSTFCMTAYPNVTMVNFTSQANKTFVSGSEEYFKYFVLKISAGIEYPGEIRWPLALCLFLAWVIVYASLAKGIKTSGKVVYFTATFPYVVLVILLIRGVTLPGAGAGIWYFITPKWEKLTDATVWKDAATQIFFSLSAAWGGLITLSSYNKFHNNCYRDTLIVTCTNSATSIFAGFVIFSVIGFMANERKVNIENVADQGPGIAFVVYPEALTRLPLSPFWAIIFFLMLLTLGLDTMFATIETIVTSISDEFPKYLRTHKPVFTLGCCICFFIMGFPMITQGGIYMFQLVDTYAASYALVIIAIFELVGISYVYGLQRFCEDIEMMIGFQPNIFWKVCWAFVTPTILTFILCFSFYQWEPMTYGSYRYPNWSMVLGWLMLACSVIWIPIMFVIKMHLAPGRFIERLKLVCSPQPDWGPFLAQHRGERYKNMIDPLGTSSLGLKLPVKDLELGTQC
Description: For the determination of the dissociation rate constant of Org25543 the so‐called displacer method was applied. Thus, after the target protein GlyT2 had been incubated with the reporter ligand Org25543 at a defined concentration (final concentration: 10 nM) and the binding allowed to reach equilibrium (1 h) dissociation was initiated by addition of 8 (final concentration: 30 μM). Overall, 12 samples were taken, the first after 15 s and the last after 3 h, and processed as described for competitive binding experiments. The same way nonspecific binding was determined except that the target protein had been subjected to a heat‐shock before. Plotting of specific binding calculated from total and nonspecific binding against time yielded the respective dissociation curves.
Next, for the determination of the association kinetics of Org25543 association experiments had to be performed. By the knowledge of [L] and k off, from k obs as the primary result of such experiments, finally, the derived rate constant k on becomes accessible by using the relation given at Equation 1, the transformed form of which is Equation 2. (1) kobs=kon×L+koff (2) kon=(kobs-koff)/L
For the determination of k obs Org25543 was added to the target protein, to start the association process, which was then stopped at eleven different time points (15 s–2 h), to measure the amount of bound marker at these defined time points. The nonspecific binding was determined for the same time points like for total binding samples but utilizing target material that had been subjected to a heat‐shock before. The concentration of the reporter ligand Org25543 was set to a value of 10 nM. […] For the establishment of association curves specific binding calculated from total binding and nonspecific binding was plotted against time.
Dissociation experiments via displacing Org25543 from GlyT2 with an excess of competitor were performed in 25 mL round bottom flasks made of glass (Duran Wheaton Kimble Life Sciences GmbH, Wertheim, Germany). For determining dissociation rate constants by the displacer approach GlyT2 membrane fractions were pre‐incubated with Org25543 at a nominal concentration of 10 nM at 37 °C in a water bath for 1 h in a total volume of 24.85 mL. The solution and the water bath were stirred constantly with magnetic stir bars at a frequency of ∼500 rpm. After 1 h of incubation dissociation was initiated by adding 150 μL of 8 resulting in […] of 30 μM. After defined time points (15 s–3 h, twelve dissociation time points, samples for each time point were prepared in triplicates) dissociation was terminated via vacuum filtration and the samples were treated the same way as described in Experimental Section MS Binding Assay: General procedure. Nonspecific binding was determined at the same time points as for the dissociation samples but incubating 10 nM Org25543 in the presence of 30 μM 8 and heat‐shocked GlyT2 membrane preparations (triplicate).

GlyT2 [2] = target: T2, GlyT2 (Homo sapiens, UniProt Q9Y345); assay: preliminary Org25543 saturation experiments in absence or presence of glycine; type: binding; conditions: for Bmax in relation to control without glycine (100 %) / Kd in relation to control without glycine (100 %): mean ± SD, two experiments
T2 construct: host or cells: HEK293 cells stably expressing hGlyT2; crude membrane fractions
T2 sequence (Q9Y345 1-797): T1 sequence (Q9Y345 1-797)
Description: glass fiber, 1.0 µm, 350 µL; Pall Corporation, Port Washington, NY, USA) were washed with water (3 x 200 µL) and methanol (3 x 200 µL) and subsequently pre-incubated for 2 h at room temperature with 0.5 % polyethylenimine (PEI). […]
KCl, 1 mM MgCl2, 1 mM CaCl2, pH 7.5) in polypropylene 96 well plates (1.2 mL well volume, Sarstedt, Nümbrecht, Germany) in total volume of 250 µL at 37 °C in a shaking water bath. After the incubation times for the filters and incubation samples had been expired, PEI was removed from the filters by vacuum filtration and 210 µL aliquots of the incubation samples were transferred on the filters and were removed by vacuum filtration as well. The filters were washed with ammonium ac etate buffer (3 x 200 µL, 154 mM, pH 7.4) and were dried at 50 °C for 1 h. After that the remaining Org25543 on the filters were washed down with acetonitrile (3 x 70 µL) containing [ 2H7]Org25543 (125 pM) and 52.5 µL ammonium bicarbonate buffer (5 mM, pH 7.8) was added to the samples to adjust the sample solvent to the mobile phase (5 mM ammonium bicarbonate buffer ( pH 7.8)/acetonitrile ( 20:80, v/v)). Finally, the samples were subjected to LC-ESI-MS/MS quantification without further sample preparation. […]
Investigating the inhibition mode of glycine in preliminary Org25543 saturation […]
In these preliminary experiments saturation experiments were performed in the same way as it is described in the Material and methods part except that Org25543 and GlyT2 were incubated either in the absence of glycine or in the presence of 2, 20 or 200 mM glycine. The saturation isotherms of a representative experiment are depicted […]
(control) in all experiments and Kd and Bmax values determined in the presence of the […]

GlyT2 [3] = conditions: ref 23, 27; read-out: IC50 (literature range); cited from earlier work

COc1cc(C(=O)NCC2(N(C)C)CCCC2)cc(OC)c1OCc1ccccc1 [Org25543, N‐[[1‐(dimethylamino)cyclopentyl]methyl]‐3,5‐dimethoxy‐4‐(phenylmethoxy)benzamide]
IC50 (GlyT2 [1]): 16 ± 1.9 nM
Kd (hGlyT2): 6.99 nM
k obs (observed association rate constant) (hGlyT2; Org25543 10 nM, 37 °C, mean±SEM, n=3): 1.72±0.01×10^−2 s^−1 and 1.72×10^−2 s^−1
koff (hGlyT2; Org25543 10 nM, displacement by 30 μM 8, 37 °C, mean±SEM, n=3, read-out: k off (dissociation rate constant)): 0.00707 s⁻¹
kon (hGlyT2; calculated as (k obs−k off)/L, read-out: k on (association rate constant)): 1.01e+06 M⁻¹ s⁻¹
reversibility of binding at GlyT2, in words (hGlyT2; dissociation experiments): fully reversible; also recorded: full reversibility
Bmax in relation to control without glycine (100 %) (GlyT2 [2]; 2 mM glycine): 106 ± 13%
Kd in relation to control without glycine (100 %) (GlyT2 [2]; 2 mM glycine): 129 ± 24%
Bmax in relation to control without glycine (100 %) (GlyT2 [2]; 20 mM glycine): 101 ± 12%
Kd in relation to control without glycine (100 %) (GlyT2 [2]; 20 mM glycine): 222 ± 56%
Kd in relation to control without glycine (100 %) (GlyT2 [2]; 200 mM glycine): 814 ± 154%
B max (representative preliminary saturation experiment) (GlyT2 [2]; in the presence of 2 mM glycine): 9.75 pmol (mg protein)-1
B max (representative preliminary saturation experiment) (GlyT2 [2]; in the presence of 20 mM glycine): 9.24 pmol (mg protein)-1
B max (representative preliminary saturation experiment) (GlyT2 [2]; in the presence of 200 mM glycine): 8.74 pmol (mg protein)-1
B max (representative preliminary saturation experiment) (GlyT2 [2]; without glycine): 8.45 pmol (mg protein)-1
Kd (GlyT2 [2]; without glycine, read-out: K d of Org25543 (representative preliminary saturation experiment)): 5.18 nM
IC50 (GlyT2 [3]): 16 to 31 nM
